What all share (assay): growth of human tumour cells (NCI), 48 h
The subject of assay [1] is LOX IMVI melanoma.
Assay [2] has as its system 786-0 renal.
In assay [3] the test system is OVCAR-5 ovarian.
Assay [4] concerns COLO 205 colon.
Assay [5] concerns HL-60(TB) leukemia.
Assay [6] has as its system NCI-H522 lung.
In assay [7] the test system is SF-295 CNS.
In assay [8] the test system is SK-MEL-5 melanoma.
For assay [9], the system named is SK-MEL-28 melanoma.
The subject of assay [10] is EKVX NSCLC.

Values joined by “and” are separate entries in the source; they are usually repeats but may differ in a detail not shown here. Identical values can stand only once.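 Briefly, cells in 96-well plates were exposed to five compound concentrations for 48 h, and endpoints were estimated by linear interpolation. GI50 = concentration required for 50% inhibition of growth. Definition used: TGI = concentration required for complete inhibition of growth.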

Consider `O=C1NC(=NCCc2ccccc2F)S/C1=C\c1ccc2ncccc2c1`, for which the GI50 was 1.82 µM in [1]; 8.71 µM in assay [2]; more than 20.4 µM in assay [3]; 6.54 µM in [4]; 9.14 µM in assay [5]; 4.74 µM in assay [6]. In addition, the GI50 was 7.06 µM in assay [7], 5.85 µM in assay [8] and 11.7 µM in assay [9]. Besides, the TGI was more than 25 µM in assay [1]; more than 25 µM in assay [2]; more than 25 µM in [3]; more than 25 µM in assay [4]; 22.1 µM in assay [5]; 16.9 µM in [6]. The figures for the TGI in assay [7], in assay [8] and in assay [9] were more than 25 µM, 19.4 µM and more than 25 µM, respectively.

As for `COC1(OC)CCC2(C)OC(c3ccccc3)C1O2` (stereo not given), the TGI in assay [1], in [2], in [3], in [4], in assay [10] and in assay [5] was more than 100 µM in each case. Also, the TGI in [6], in assay [7] and in assay [9] was more than 100 µM throughout.

As for `O=C(CC(=O)N1N=C(n2ccc3ccccc32)CC1c1ccccc1)Nc1ccccc1Cl` (stereo not given), the TGI in assay [1], in assay [2], in [4], in assay [10], in assay [5] and in assay [6] was more than 100 µM each time. Besides, the TGI in assay [7] and in [9] was more than 100 µM in each case.

Consider `Cn1ccc(S(=O)(=O)N2CCC[C@H](Nc3nccc(-c4c(-c5cccc(O)c5)nc5occn45)n3)C2)n1`, for which the GI50 in [1] was 2.87 µM; in assay [2], 20.1 µM; in assay [3] it was 24.9 µM; in assay [4], 0.0913 µM; in assay [5], 10.8 µM; in assay [6], 13 µM. In addition, the GI50 was 22.3 µM in assay [7], 3.51 µM in assay [8] and 0.0938 µM in [9]. For the same molecule, the TGI is 18.7 µM in assay [1]; more than 100 µM in assay [2]; more than 100 µM in [3]; 28.6 µM in assay [4]; 32.3 µM in [5]; 36.4 µM in assay [6]. For the same molecule, the TGI in assay [7] was 62.1 µM; in assay [8], 18.6 µM; in assay [9], 20.5 µM.

For the molecule `CCN(CC)CCN1C(=O)c2c(c3c4cccc(Cl)c4n(C4OC(CO)C(OC)C(O)C4O)c3c3[nH]c4c(Cl)cccc4c23)C1=O` (stereo not given), the GI50 in assay [1] is less than 0.0001 µM; in assay [2], less than 0.0001 µM; in assay [5] it was 0.309 µM and 0.0366 µM; in assay [6] it was less than 0.01 µM; in [7] it was 0.000169 µM. Moreover, the TGI in assay [6] was 0.21 µM and 0.146 µM.

On to `CCCCNC(=O)CC1=C(C)/C(=C/c2[nH]c(-c3ccc[nH]3)cc2OC)N=C1C`, for which the GI50 in assay [1] is 1.56 µM; in assay [2] it was 2.04 µM; in [3], 3.19 µM; in assay [4] it was 1.68 µM; in assay [10], 2.29 µM; in [5], 2.84 µM. The GI50 in assay [6] was 1.8 µM; in assay [7], 1.6 µM. In addition, the TGI amounted to 3.17 µM in assay [1]; 4.64 µM in assay [2]; 34.1 µM in assay [3]; 4.04 µM in assay [4]; 15.5 µM in assay [10]; 6.87 µM in assay [5]. Also, the TGI in assay [6] was found to be 4.89 µM; in assay [7], 3.48 µM.

For `c1ccc(C2=Nc3ccccc3N3CNN=C23)cc1`, the GI50 in assay [1] was more than 100 µM; in assay [2] it was more than 100 µM; in assay [3], more than 100 µM; in assay [4] it was more than 100 µM; in [10], 47.9 µM; in assay [6], more than 100 µM. The GI50 in assay [7] was more than 100 µM; in [8] it was 63.6 µM. Moreover, the TGI in assay [1], in assay [2], in [3], in assay [4], in assay [10] and in assay [6] was more than 100 µM throughout. In addition, the TGI in [7] and in [8] was more than 100 µM throughout.

Turning to `Cc1[nH]c2ccccc2c1/C=C/c1c(C)[nH]c2ccccc12`, the TGI in [2], in assay [3], in assay [10], in assay [5], in [7] and in assay [8] was more than 100 µM each time. In addition, the TGI in [9] is more than 100 µM.

Consider `COc1c(CC(C)=O)c2ccccc2n1C(C)=O`, for which the TGI in assay [2], in assay [4], in [10], in assay [5], in [7] and in assay [9] was more than 100 µM in each case.

On to `COc1cc(C2C=C(C)N=C3SC=C(C)N32)cc(OC)c1OC` (stereo not given), for which the GI50 was 0.379 µM in [1]; 0.827 µM in assay [2]; 1.55 µM in [3]; 1.32 µM in assay [4]; 0.76 µM in assay [5]; 0.53 µM in [6]. For the same molecule, the figures for the GI50 in [7], in assay [8] and in [9] were 2.07 µM, 1 µM and 0.507 µM, respectively. Besides, the TGI in assay [1] amounted to 1.73 µM; in assay [2], 2.67 µM; in assay [3], 3.83 µM; in [4], 3.04 µM; in assay [5], 7.09 µM; in assay [6], 1.81 µM. Moreover, the TGI was 6.19 µM in [7], 2.21 µM in assay [8] and 2.01 µM in assay [9].

As to `O=C1C=C(Nc2cc(Cl)ccc2Cl)c2ccccc2C1=O`, the TGI in [2] was more than 100 µM; in assay [3], more than 100 µM; in [4] it was more than 100 µM; in assay [10], more than 100 µM; in assay [5], 40.9 µM; in assay [7], 79.3 µM. The TGI in assay [9] was more than 100 µM.

With `N#Cc1ncc(-c2ccc(C(F)(F)F)cc2)c(NC2CCCCCC2)n1`, the GI50 in [2] was 47.7 µM; in [3], more than 100 µM; in assay [4], 13.2 µM; in assay [5], 10.4 µM; in [6], 6.02 µM; in assay [7] it was 27.5 µM. Also, the GI50 is 33.5 µM in assay [8] and 71.5 µM in assay [9]. In addition, the TGI is more than 100 µM in [2]; more than 100 µM in [3]; 62.1 µM in assay [4]; more than 100 µM in assay [5]; more than 100 µM in assay [6]; more than 100 µM in assay [7]. Further, the TGI in [8] and in assay [9] was more than 100 µM in each case.

For the origin of these results see PubChem BioAssay (NCI).
